Assays:
[1] = test system: murine CD4+ T cells; assay: In vitro CD4+ T cell activation assay (anti-CD3/anti-CD28); format: cell-based; details: for Th1 responses in CD4 T cells: anti-CD3 & anti-CD28 mAbs, 24 hours (FIG. 11)
Method: Primary CD4+ T cells were freshly isolated by negative selection from spleens of C57/B16 mice (N=3 per experiment). Briefly, spleens were smashed in a culture dish and passed twice through a strainer (70 μm and 40 μm, respectively) to obtain a single-cell suspension.
Using the negative selection (CD4+ T Cell Isolation kit, Miltenyi Biotec, #130-10-454). Non-CD4 T cells were depleted by retaining them in LS magnetizing column (Miltenyi Biotec).
Isolated CD4 T cells were cultured in 96-well plates (1×10^5 per well) in RPMI1640 medium supplemented with 10% fetal bovine serum, 100 U/ml penicillin, 100 μg/ml streptomycin, 2 mM L-glutamine. Treatment with the metabolites 6-BT (1/10 μM), LysoPC(20:0) (10/50 μM) or MA-GPC (10/50/100 μM) and activation with 2.5 μg/ml soluble anti-CD3 (145-2C11, eBioscience) and 1 μg/ml soluble anti-CD28 (37.51, eBioscience) antibodies started immediately after seeding in 200 i/well complete RPMI1640 media for a 24-hour period, at the end of which supernatant was harvested and stored at −80° C.
(§1) Specific ELISAs (R&D Systems) were utilized to measure the concentration of TNFα, IFNβ, and IFNγ in cell supernatant of murine monocytes, macrophages ad T cells, respectively, according to the manufacturer's instructions. The concentration of insulin after 24-hour treatment with metabolites or after GSIS were determined using Rat insulin ELISA (Mercodia) according to the manufacturer's instructions. GSIS was calculated by subtracting the concentration of insulin at 1 mM glucose to the insulin rate at 22 mM glucose.
Particularly in the context of autoimmune diabetes, the activity of T cells is driving disease onset and progression. […] To mimic antigen presentation, murine CD4 T cells (isolated from spleens; Uchimura T., The Innate Immune Sensor NLRC3 Acts as a Rheostat that Fine-Tunes T Cell Responses in Infection and Autoimmunity. Immunity 2019) were activated by monoclonal antibodies against CD3 and CD28 (2.5 and 1 μg/ml, respectively).

[2] = test system: NF-κB; assay: NF-κB reporter macrophage luciferase assay (RAW264.7); format: cell-based, murine; details: RAW264.7 3x-κB-luc; LPS 10/100 ng/ml 2 hours; different doses (FIG. 7)
Method: NF-κB signaling activation was assessed by luciferase activity assay. RAW264.7 cells stably transfected with the 3×-κB-luc plasmid (DNA construct containing three NF-κB sites from the Ig κ light chain promoter coupled to the gene encoding firefly luciferase) were grown in DMEM medium supplemented with 10% heat-inactivated fetal bovine serum, penicillin (100 U/ml), streptomycin (100 μg/ml), L-glutamine (2 mM). Cells were seeded in F-bottom 96-well […] metabolites at different concentrations (6-BT 0,1-100 μM, LysoPC(20:0) 1-10 μM, 16:0-18:2 PE 1-50 μM, MA-GPC 1-100 μM). Afterwards, cells were lysed with 25 μl/well 1×passive lysis buffer and firefly luciferase activity was measured by LUCIFERASE® Assay System (Promega, E1500) on a GLOMAX @-Multi Detection System (Promega).

[3] = test system: murine bone marrow-isolated monocytes or bone marrow-derived macrophages; assay: In vitro stimulation of murine monocytes / bone marrow-derived macrophages, cytokine ELISA; format: cell-based; details: for cytokine secretion by monocytes: murine monocytes CD11b+ activated with LPS (10 μg/ml) for 24 hours, TLR4 stimulation (FIG. 8)
Method: Naïve bone marrow monocytes were isolated from BM cells. Briefly, hind legs were removed from 3 mice, cleaned from surrounding muscles. The femur and tibia bones were trimmed at their extremities, the BM content was flushed out with cold PBS using a 10 ml syringe and a 25G needle and filtered through a 40 μm strainer. Red blood cells (RBC) were lysed with 1× RBC lysis buffer (Biolegend) for 5 min. on ice. CD11b+ monocytes were further purified by positive selection using a cocktail of CD11 b magnetic beads (Miltenyi Biotec, #130-049-601) and magnetizing MS columns (Miltenyi Biote) according to the manufacturer's instructions. Subsequently, monocytes were seeded in F-bottom 96-well plates at 1×10^5 cells per well in RPMI1640 supplemented with 10% heat-inactivated fetal bovine serum, penicillin (100 U/ml), streptomycin (100 μg/ml), L-glutamine (2 mM) […]. Monocytes were activated with 10 μg/ml LPS (Sigma-Aldrich) and subjected to treatment with 6-BT (10/100 μM), LysoPC(20:0) (10/50 μM), MA-GPC (10/50/100 μM), or appropriate vehicle. Cells were kept in a final volume of 200 μl/well for 24 hours, after which supernatant was harvested and stored at −80° C.
Bone marrow-derived macrophages (BMDM) and DC (BMDC) were obtained by differentiating freshly isolated BM cells from femur and tibia bones (as above described) of C57/B16 mice (N=3 per experiment). For BMDM, BM cells were seeded at 3×10^6 cells per 10 cm dish and cultured for 7 days in 12 ml RPMI1640 medium with 20% fetal bovine serum, 30% L-929 cell conditioned media, as source of murine macrophage colony-stimulating factor (M-CSF). For BMDC, BM cells were seeded at 0.5×10^6/ml cells in 25 ml in 10 cm dishes and cultured for 7 days in presence of GM-CSF in 5% FBS-RPMI1640 medium. After differentiation, BMDM/DCs were harvested, counted and seeded at a density of 1×10^5 cells per well in a F-bottom 96-well plate and left to adhere for 20 hours before experiments were performed. Macrophages were activated with 10 μg/ml polyinosinic-polycytidylic acid poly(I.C) (InvivoGen) for 24 hours in presence or not of 6-BT (10/100 μM), LysoPC(20:0) (10/50 μM), or MA-GPC (10/50/100 μM) in a final volume of 200 μl/well. At the end of the assay, supernatant was harvested and stored at −80° C.
as §1
Here, murine bone marrow-isolated monocytes (Christ A., Western Diet Triggers NLRP3-Dependent Innate Immune Reprogramming. Cell 2018) or bone marrow-derived macrophages (Swanson K V, A noncanonical function of cGAMP in inflammasome priming and activation. JEM 2017) were exposed for 24 hours to the indicated concentrations of 6-BT (10-100 μM) in presence or not of 10 μg/ml LPS, 10 μg/ml P3C or 10 μg/ml poly(I.C).

[4] = test system: INS1E beta cells; assay: Seahorse XF intracellular metabolism, INS1E beta cells; format: cell-based, rat; details: INS1E beta cells; compared with 6-BT
Excerpt: Lastly, it was investigated whether 6-BT may influence the mitochondrial metabolism of beta cells, which rely on ATP and mitochondrial metabolite production for insulin exocytosis. […] Intracellular metabolism measured using a Seahorse XF Analyzer Uchimura T., The Innate Immune Sensor NLRC3 Acts as a Rheostat that Fine-Tunes T Cell Responses in Infection and Autoimmunity.

Row | SMILES | Th1 responses in CD4 T cells [1] | NFκB pathway activation in macrophages [2] | cytokine secretion by monocytes [3] | type 1 IFN secretion ([3]; PolyI:C for 24 hours, TLR3 stimulation (FIG. 9)) | production of the Th1 cytokine IFNgamma ([1]; CD4 T cells from spleens, anti-CD3 2.5 μg/ml and anti-CD28 1 μg/ml (FIGS. 16, 20)) | effect on intracellular metabolism [4]
1 | CCCCC/C=C\C/C=C\C/C=C\C/C=C\CCCC(=O)OC[C@@H](O)COP(=O)([O-])OCC[N+](C)(C)C [A-GPC, 1-arachidonoyl-glycero-phosphocholine] | dampen Th1 responses | can inhibit NFκB pathway activation | halt cytokine secretion |  |  | 
2 | CCCCC/C=C\C/C=C\C/C=C\C/C=C\CCCC(=O)O[C@H](COC(=O)CCCCCCCCCCCCC)COP(=O)([O-])OCC[N+](C)(C)C [MA-GPC, 1-myristoyl-2-arachidonoyl-glycero-phosphocholine] | hampers immune responses | can inhibit NFκB pathway activation | halt cytokine secretion | impair type 1 IFN secretion |  | 
3 | N[C@@H](Cc1c[nH]c2ccccc12)C(=O)O [tryptophan, reference compound] |  |  |  |  | but not tryptophan, exerted inhibitory effect | exerted a different effect than 6-BT
